Results: patent US20210206875A1, “ERBB-2 TARGETING AGENT AND A BISPECIFIC ANTIBODY WITH ANTIGEN-BINDING SITES THAT BIND AN EPITOPE ON AN EXTRACELLULAR PART OF ERB-2 AND ERBB-3, FOR TREATMENT OF AN INDIVIDUAL WITH AN ERBB-2, ERBB-2/ERBB-3 POSITIVE TUMOUR” (Merus N.V., priority 2017, published 2021)
Where “and” joins values, the source holds several entries; their conditions need not be identical. Equal entries are not always repeated.

What was measured:
[1] = system: HER2 overexpressing cells (SK-BR-3, BT-474, N87); assay: Drug combinations with PB4188 in vitro (isobolograms); assay type: cell-based, human; conditions: in the presence of HRG, matrigel or HRG stress concentrations
Method: Moreover, combination with chemotherapeutic drugs and cyclin inhibitors were tested. Combinations were tested on HER2 overexpressing cells growing in the presence of HRG in matrigel (SK-BR-3 and BT-474) or in the presence of HRG stress concentrations (N87 and SK-BR-3 as described in proliferation assays). The inhibitory effect of drug combinations was tested by imaging or by measuring proliferation using Alamar Blue as described herein before. […] The extent of growth inhibition obtained with each combination was calculated. […] The inhibition values of the combination experiments were used by CHALICE™ Analyzer software to generate the isobolograms.

[2] = system: intracranial ST1360B PDX tumors; assay: Intracranial ST1360B PDX tumor model; assay type: in vivo, mouse
Method: The viability of total cells was greater than 80%. […] The cells were kept on ice until inoculation.
Drugs were diluted in sterile saline before each dosing. […] The dosing volume was 5.0 mL/kg.
The fixative: tissue ratio was at least 20:1.
Image analysis was performed using Horos.

[3] = compared to vehicle treated mice

For `Cc1nc(NC(=O)N2CCC[C@H]2C(N)=O)sc1-c1ccnc(C(C)(C)C(F)(F)F)c1` [BYL719], the “drug combination with PB4188 (isobologram analysis)” value [1] was “synergistic”.
With “trastuzumab-emtansine [T-DM1, reference compound]” the “tumor growth by T2-weighted MRI” value [2, 3] was “Tumor growth was inhibited” and the “mean tumor volume 10 days post therapy” value ([2]; compared to vehicle treated mice, p<0.05) was “significantly smaller”.
For `CC(=O)O[C@H]1C(=O)[C@@]2(C)[C@H]([C@H](OC(=O)c3ccccc3)[C@]3(O)C[C@H](OC(=O)[C@H](O)[C@@H](NC(=O)c4ccccc4)c4ccccc4)C(C)=C1C3(C)C)[C@]1(OC(C)=O)CO[C@@H]1C[C@@H]2O` [paclitaxel], the “drug combination with PB4188 (isobologram analysis)” value [1] was “synergistic”.
In the case of `CS(=O)(=O)CCNCc1ccc(-c2ccc3ncnc(Nc4ccc(OCc5cccc(F)c5)c(Cl)c4)c3c2)o1` [lapatinib], the “drug combination with PB4188 (isobologram analysis)” value [1] is reported as “synergistic”.
In the case of `NC1(c2ccc(-c3nc4ccn5c(=O)[nH]nc5c4cc3-c3ccccc3)cc2)CCC1` [MK-2206], the “drug combination with PB4188 (isobologram analysis)” value [1] is reported as “synergistic”.
In the case of `CO[C@H]1C[C@@H]2CC[C@@H](C)[C@@](O)(O2)C(=O)C(=O)N2CCCC[C@H]2C(=O)O[C@H]([C@H](C)C[C@@H]2CC[C@@H](OCCO)[C@H](OC)C2)CC(=O)[C@H](C)/C=C(\C)[C@@H](O)[C@@H](OC)C(=O)[C@H](C)C[C@H](C)/C=C/C=C/C=C/1C` [everolimus], the “drug combination with PB4188 (isobologram analysis)” value [1] is reported as “synergistic”.
With `CCOc1cc2ncc(C#N)c(Nc3ccc(OCc4ccccn4)c(Cl)c3)c2cc1NC(=O)/C=C/CN(C)C` [neratinib] the “drug combination with PB4188 (isobologram analysis)” value [1] was “synergistic”.
In the case of `O=C(CCCCCCC(=O)Nc1ccccc1)NO` [vorinostat], the “drug combination with PB4188 (isobologram analysis)” value [1] is reported as “synergistic”.
In the case of “MCLA-128: bispecific antibody MCLA-128 directed against HER2 and HER3”, the “Brain edema score day 3” value ([2]; MRI, scale 0-4 (0 no, 4 massive brain edema), individual mice, day 3 post initiation of therapy) is reported as 2 (2×) and 0 (2×) and 1 (4×), the “Brain edema score day 7” value ([2]; MRI, scale 0-4, individual mice, day 7) is reported as 2 (4×) and 0 (2×) and 3 and 1 and the “Brain edema score day 10” value ([2]; MRI, scale 0-4, individual mice, day 10) is reported as 2 (4×) and 0 (2×) and 3 and 1. For the same molecule, the “Brain edema score day 14” value ([2]; MRI, scale 0-4, individual mice, day 14) was 1 (4×) and 0 and 3 (3×), the “Brain edema score day 21” value ([2]; MRI, scale 0-4, individual mice, day 21) was 2 (2×) and 1 (3×) and 3 (3×) and the “Brain edema score day 28” value ([2]; MRI, scale 0-4, individual mice, day 28) was 3 (4×) and 4. For the same molecule, the “Brain edema score day 35” value ([2]; MRI, scale 0-4, individual mice, day 35) was 3, the “Brain edema score day 42” value ([2]; MRI, scale 0-4, individual mice, day 42) was 3 and the “Brain edema final score” value ([2]; MRI, scale 0-4, individual mice, last MR scan) was 3 (4×) and 1 (3×) and 4. The “tumor growth by T2-weighted MRI” value [2, 3] was “tumor growth delay” and the median survival ([2]; post therapy initiation, T-DM1 10 mg/kg qwk, MCLA-128 25 mg/kg twice wk, i.v., vehicle 13 days) was 29 days.
